Reference: paper PMC7582957, “A Fluorescence Polarization-Based High-Throughput Screen to Identify the First Small-Molecule Modulators of the Human Adenylyltransferase HYPE/FICD” (International Journal of Molecular Sciences, 2020)
Where a chain is given by its changes, count along the chain named.

How the values were obtained:
Format in all cases: biochemical
Δ102 HYPE (HYPE103-456) [1] = target: T1, Δ102 HYPE (HYPE103-456) (Homo sapiens, UniProt Q9BVA6); assay: fluorescence polarization autoAMPylation with Fl-ATP; conditions: activator; detergent-less minimal buffer 50 mM HEPES pH 7.5, 1 mM MnCl2, 25 nM Fl-ATP, 0.4 µM enzyme, room temperature; unreliable
T1 construct: gene FICD; aa 103-456, lacks TM domain and N-terminus; His6-SUMO tag cleaved by ULP1; pSMT3, E. coli BL21-DE3-RILP; cobalt and size-exclusion purified
T1 sequence (Q9BVA6 103-456): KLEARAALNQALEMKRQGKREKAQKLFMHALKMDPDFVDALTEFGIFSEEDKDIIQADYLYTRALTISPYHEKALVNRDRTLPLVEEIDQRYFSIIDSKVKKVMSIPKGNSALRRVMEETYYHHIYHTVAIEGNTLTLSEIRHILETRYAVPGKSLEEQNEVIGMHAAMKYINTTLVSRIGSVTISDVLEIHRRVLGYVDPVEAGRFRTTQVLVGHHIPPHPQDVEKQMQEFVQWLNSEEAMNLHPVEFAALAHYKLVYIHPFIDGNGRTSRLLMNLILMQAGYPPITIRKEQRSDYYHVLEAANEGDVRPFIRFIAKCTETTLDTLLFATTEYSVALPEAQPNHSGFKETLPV
From the text: fluorescence polarization autoAMPylation with Fl-ATP on Δ102 HYPE (HYPE103-456) | robust dose-dependencies among all activators, with low micromolar EC50 values

Δ102 HYPE (HYPE103-456) [2] = target: T2, Δ102 HYPE (HYPE103-456) (Homo sapiens, UniProt Q9BVA6, E234G); assay: as above
T2 construct: gene FICD; aa 103-456, lacks TM domain and N-terminus; His6-SUMO tag cleaved by ULP1; pSMT3, E. coli BL21-DE3-RILP; cobalt and size-exclusion purified
T2 sequence (Q9BVA6 103-456 E234G): T1 sequence (Q9BVA6 103-456) with E132G
From the text: fluorescence polarization autoAMPylation with Fl-ATP on Δ102 HYPE (HYPE103-456) | I1 and I3 were in the mid-micromolar range | we obtained a low micromolar inhibitory potency for I2

Δ45 HYPE = target: T3, Δ45 HYPE (Homo sapiens, UniProt Q9BVA6); assay: in-gel fluorescence autoAMPylation with Fl-ATP; conditions: activator; same, with 0.1% Triton X-100
T3 construct: gene FICD; aa 46-456, TM domain deleted; His6-SUMO tag cleaved by ULP1; pSMT3, E. coli BL21-DE3-RILP; cobalt and size-exclusion purified
T3 sequence (Q9BVA6 46-456): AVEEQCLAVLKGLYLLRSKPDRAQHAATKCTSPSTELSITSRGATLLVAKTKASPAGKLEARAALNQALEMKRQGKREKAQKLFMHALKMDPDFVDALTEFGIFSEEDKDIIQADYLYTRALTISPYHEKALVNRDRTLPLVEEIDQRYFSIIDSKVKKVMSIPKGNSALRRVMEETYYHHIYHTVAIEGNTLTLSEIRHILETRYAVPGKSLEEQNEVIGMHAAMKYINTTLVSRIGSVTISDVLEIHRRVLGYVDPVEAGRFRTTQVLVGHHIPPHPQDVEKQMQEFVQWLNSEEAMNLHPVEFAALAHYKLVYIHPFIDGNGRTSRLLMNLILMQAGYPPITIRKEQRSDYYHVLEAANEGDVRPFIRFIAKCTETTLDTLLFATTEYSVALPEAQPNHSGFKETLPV

Structure (SMILES) | EC50 (Δ102 HYPE (HYPE103-456) [1]) [µM] | IC50 (Δ102 HYPE (HYPE103-456) [2]) [µM] | also measured
CCCCCCCCCCCCCCCC[N+](C)(C)CCN(Cc1ccc(OC)cc1)c1ncccn1 [A5, Thonzonium Bromide] | 10.305 |  | 
CCCCC(CC)CN1CN(CC(CC)CCCC)CC(C)(N)C1 (stereo not shown) [A3, Hexetidine] | 13.144 |  | 
CCCCCCCCCCCCCCCC(O)C(N)CO (racemic) [A2, DL-erythro-dihydrosphingosine] | 15.415 |  | 
CC(C)(C)c1ccc(-c2cc(C[C@H]3CNCC[C@H]3CC(=O)N3CCN(c4ccc(F)cc4)CC3)no2)cc1 [A6, NAT14–350426] |  |  | in-gel fluorescence autoAMPylation with Fl-ATP (Δ45 HYPE): significant increase in bioactivity of A1 and A4–A6 (Figure 9D)

Continued, in another order:

EC50 (Δ102 HYPE (HYPE103-456) [1]) [µM] | IC50 (Δ102 HYPE (HYPE103-456) [2]) [µM] | Structure (SMILES) | also measured
 | 30.4 | Cc1cc(-c2ccc(N=Nc3ccc4c(S(=O)(=O)O)cc(S(=O)(=O)O)c(N)c4c3O)c(C)c2)ccc1N=Nc1ccc2c(S(=O)(=O)O)cc(S(=O)(=O)O)c(N)c2c1O [I1, Evan’s Blue] | 
 | 0.347 | O=C(O)C1=CC(=C(c2ccc(O)c(C(=O)O)c2)c2ccc(O)c(C(=O)O)c2)C=CC1=O [I2, Aurintricarboxylic Acid] | 
 | 22.5 | COc1cc(-c2ccc(N=Nc3ccc4c(S(=O)(=O)O)cc(S(=O)(=O)O)c(N)c4c3O)c(OC)c2)ccc1N=Nc1ccc2c(S(=O)(=O)O)cc(S(=O)(=O)O)c(N)c2c1O [I3, Chicago Sky Blue] | 
